A short description of series [1]: Drug metabolism in human HaCaT cells assessed as induction of NO release at 10 uM after 1 hr by DAF-2D-based FACS analysis. It counts as ADME, cell-based. Background: Flow cytometry measures light scatter and fluorescence of single cells or particles in a stream.
The nature of series [2]: Activation of soluble guanylyl cyclase in Wistar rat aortic strips assessed as dilation of L-phenylephrine-induced contraction administered 5 mins before contraction in presence of ODQ by isometric transducer analysis.
In series [3] the target is Histone deacetylase (Homo sapiens) (UniProt Q13547+O15379+Q9UBN7+Q92769+Q9UQL6+Q8WUI4+Q9BY41+Q96DB2+P56524+Q9UKV0+Q969S8). Put plainly: Inhibition of HDAC in human HaCaT cells at 10 uM using acetylated lysine side chain as substrate incubated for 1 hr by colorimetric detection based assay relative to control. It counts as cell-based.
Another series relates to Rattus norvegicus. Put plainly: (§1) Activation of soluble guanylyl cyclase in Wistar rat aortic strips assessed as dilation of L-phenylephrine-induced contraction administered 5 mins before contraction by isometric transducer analysis.
A short description of series [4]: as §1.
Series [5] concerns the target T1, Histone deacetylase 2 (Homo sapiens, UniProt Q92769). Put plainly: Induction of HDAC2 S-nitrosylation in human HaCaT cells after 1 hr by immunoprecipitation and Western blot analysis. Format: cell-based. (In general: Immunoblotting shows a protein as a band on a membrane.)
Series [6] in a line: Drug metabolism in human HaCaT cells assessed as induction of NO release at 50 to 100 uM after 1 hr by DAF-2D-based FACS analysis. It counts as ADME, cell-based.
For the next series, the system named is HaCaT. Put plainly: Cytotoxicity against human HaCaT cells assessed as increase in dead cells 0.1 to 100 uM after 72 hrs by Trypan Blue-based assay. Format: cell-based.
Another series deals with Histone deacetylase 1 (Homo sapiens, UniProt Q13547). Put plainly: Inhibition of human FLAG-tagged HDAC1 expressed in HEK293T cells using acetylated lysine side chain as substrate after 1 hr by colorimetric detection based assay.
Chain of Histone deacetylase 1 (Q13547 whole entry): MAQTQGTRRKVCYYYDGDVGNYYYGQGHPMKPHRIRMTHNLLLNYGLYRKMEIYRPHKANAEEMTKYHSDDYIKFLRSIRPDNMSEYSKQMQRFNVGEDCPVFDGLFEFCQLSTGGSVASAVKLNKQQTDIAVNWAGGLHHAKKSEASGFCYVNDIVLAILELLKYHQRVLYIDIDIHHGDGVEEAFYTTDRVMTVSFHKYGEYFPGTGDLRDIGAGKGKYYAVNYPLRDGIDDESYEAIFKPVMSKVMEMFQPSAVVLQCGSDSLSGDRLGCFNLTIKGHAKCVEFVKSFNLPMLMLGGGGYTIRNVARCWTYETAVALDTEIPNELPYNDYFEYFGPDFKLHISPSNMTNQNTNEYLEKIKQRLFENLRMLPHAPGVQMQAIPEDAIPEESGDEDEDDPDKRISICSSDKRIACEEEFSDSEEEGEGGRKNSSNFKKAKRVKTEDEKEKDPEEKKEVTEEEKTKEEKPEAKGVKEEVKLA
The test system of series [7] is C2C12. Put plainly: Induction of skeletal muscle differentiation in mouse C2C12 cells assessed as myotube formation by measuring MHC expression at 0.5 uM after 5 days by DAPI-staining based microscopy. Format: functional, cell-based.
The target in another series is Histone deacetylase 3 (Homo sapiens, UniProt O15379). Put plainly: Inhibition of human FLAG-tagged HDAC3 expressed in HEK293T cells using acetylated lysine side chain as substrate after 1 hr by colorimetric detection based assay. Format: cell-based.
Chain of Histone deacetylase 3 (O15379 whole entry): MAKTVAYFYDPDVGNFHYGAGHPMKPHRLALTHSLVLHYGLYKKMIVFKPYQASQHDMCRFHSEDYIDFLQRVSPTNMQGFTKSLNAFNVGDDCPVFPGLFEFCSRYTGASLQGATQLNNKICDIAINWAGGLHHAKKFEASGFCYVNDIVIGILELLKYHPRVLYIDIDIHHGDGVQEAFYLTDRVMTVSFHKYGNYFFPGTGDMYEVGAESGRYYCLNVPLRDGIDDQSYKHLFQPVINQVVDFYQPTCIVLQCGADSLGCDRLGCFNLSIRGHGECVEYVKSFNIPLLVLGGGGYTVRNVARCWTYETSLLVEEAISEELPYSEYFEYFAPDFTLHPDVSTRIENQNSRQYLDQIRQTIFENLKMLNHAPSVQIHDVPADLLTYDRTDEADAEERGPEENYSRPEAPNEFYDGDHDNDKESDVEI
Series [8] concerns the target Histone deacetylase 5 (Homo sapiens) (UniProt Q9UQL6). The experiment in a line: Induction of HDAC5 nuclear translocation in human HaCaT cells at 10 uM after 1 hr by immunofluorescence analysis. Format: cell-based.
Series [9] can be described thus: Drug metabolism in human HaCaT cells assessed as induction of NO release at 10 uM by DAF-2D-based FACS analysis. It counts as ADME, cell-based. The following applies: TDE = time-dependent effect.
For series [10], the target named is Histone deacetylase 4 (Homo sapiens) (UniProt P56524). Put plainly: Induction of HDAC4 nuclear translocation in human HaCaT cells at 10 uM after 1 hr by immunofluorescence analysis. Format: cell-based.
Chain of Histone deacetylase 4 (Homo sapiens) (P56524 whole entry): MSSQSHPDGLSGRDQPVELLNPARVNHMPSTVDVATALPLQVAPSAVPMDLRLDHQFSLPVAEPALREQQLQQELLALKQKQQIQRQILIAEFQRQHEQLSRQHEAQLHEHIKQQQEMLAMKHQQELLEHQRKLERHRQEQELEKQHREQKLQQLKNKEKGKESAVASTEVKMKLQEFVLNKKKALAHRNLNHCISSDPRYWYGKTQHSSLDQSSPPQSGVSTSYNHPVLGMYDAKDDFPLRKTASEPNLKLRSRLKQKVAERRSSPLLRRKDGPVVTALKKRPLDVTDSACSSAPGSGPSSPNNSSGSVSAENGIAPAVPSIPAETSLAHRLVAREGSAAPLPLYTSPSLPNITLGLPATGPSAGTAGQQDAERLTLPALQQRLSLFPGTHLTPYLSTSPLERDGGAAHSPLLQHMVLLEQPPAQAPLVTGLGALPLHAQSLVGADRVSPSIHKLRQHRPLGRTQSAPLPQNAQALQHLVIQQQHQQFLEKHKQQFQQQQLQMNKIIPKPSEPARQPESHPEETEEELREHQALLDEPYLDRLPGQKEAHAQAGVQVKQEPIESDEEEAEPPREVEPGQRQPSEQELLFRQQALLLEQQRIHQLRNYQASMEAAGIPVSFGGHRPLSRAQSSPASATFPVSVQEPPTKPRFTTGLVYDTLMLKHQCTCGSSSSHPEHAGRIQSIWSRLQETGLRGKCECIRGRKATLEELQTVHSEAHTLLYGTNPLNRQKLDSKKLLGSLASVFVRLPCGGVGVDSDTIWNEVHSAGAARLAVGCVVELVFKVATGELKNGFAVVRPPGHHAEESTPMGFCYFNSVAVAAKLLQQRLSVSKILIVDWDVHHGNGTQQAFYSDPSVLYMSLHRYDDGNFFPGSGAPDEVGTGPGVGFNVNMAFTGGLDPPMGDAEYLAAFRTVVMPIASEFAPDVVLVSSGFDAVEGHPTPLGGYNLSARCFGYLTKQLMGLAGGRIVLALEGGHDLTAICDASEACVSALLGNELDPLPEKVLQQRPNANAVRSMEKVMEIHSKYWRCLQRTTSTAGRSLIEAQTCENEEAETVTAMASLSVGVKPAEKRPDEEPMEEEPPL
In series [11] the target is T1, Histone deacetylase 2. The experiment in a line: Inhibition of FLAG-tagged HDAC2 (unknown origin) expressed in HEK293T cells using acetylated lysine side chain as substrate after 1 hr by colorimetric detection based assay. It counts as cell-based.
Series [12] relates to C2C12. Put plainly: Cytotoxicity against mouse C2C12 cells assessed as increase in dead cells 0.5 to 10 uM after 72 hrs by Trypan Blue-based assay. The following applies: c2c12, 72 h. Format: cell-based.
The subject of series [13] is C2C12. Put plainly: Induction of skeletal muscle differentiation in mouse C2C12 cells assessed as induction of multinucleated fibers at 0.5 uM after 5 days by DAPI-staining based microscopy. Format: functional, cell-based.
In series [14] the test system is C2C12. The experiment in a line: Induction of skeletal muscle differentiation in mouse C2C12 cells assessed as increase in myoblast fusion by measuring MyoM expression at 0.5 uM after 5 days by qRT-PCR analysis. It counts as functional, cell-based. (Quantitative PCR measures a nucleic acid by following its amplification.)

The record followed here is ChEMBL document CHEMBL4251627, “Structural and biological characterization of new hybrid drugs joining an HDAC inhibitor to different NO-donors” (Eur J Med Chem, 2018).

Calls of active or inactive are those of the source. No cut-off for these calls is given here.

T1 sequence (Q92769 whole entry): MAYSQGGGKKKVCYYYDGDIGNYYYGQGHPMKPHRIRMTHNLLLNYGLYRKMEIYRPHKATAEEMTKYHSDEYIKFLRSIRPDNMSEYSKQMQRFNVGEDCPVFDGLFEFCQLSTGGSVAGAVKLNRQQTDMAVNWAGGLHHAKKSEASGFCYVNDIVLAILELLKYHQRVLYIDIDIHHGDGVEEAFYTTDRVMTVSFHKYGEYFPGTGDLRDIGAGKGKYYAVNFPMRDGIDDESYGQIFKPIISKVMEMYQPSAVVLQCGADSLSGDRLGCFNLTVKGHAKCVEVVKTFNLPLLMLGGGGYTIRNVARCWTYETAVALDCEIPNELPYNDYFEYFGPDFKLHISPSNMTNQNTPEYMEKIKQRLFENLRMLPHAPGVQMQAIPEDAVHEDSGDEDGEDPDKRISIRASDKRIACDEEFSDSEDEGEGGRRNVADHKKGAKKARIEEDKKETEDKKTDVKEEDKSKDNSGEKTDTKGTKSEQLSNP
Chain of Histone deacetylase 5 (Homo sapiens) (Q9UQL6 whole entry): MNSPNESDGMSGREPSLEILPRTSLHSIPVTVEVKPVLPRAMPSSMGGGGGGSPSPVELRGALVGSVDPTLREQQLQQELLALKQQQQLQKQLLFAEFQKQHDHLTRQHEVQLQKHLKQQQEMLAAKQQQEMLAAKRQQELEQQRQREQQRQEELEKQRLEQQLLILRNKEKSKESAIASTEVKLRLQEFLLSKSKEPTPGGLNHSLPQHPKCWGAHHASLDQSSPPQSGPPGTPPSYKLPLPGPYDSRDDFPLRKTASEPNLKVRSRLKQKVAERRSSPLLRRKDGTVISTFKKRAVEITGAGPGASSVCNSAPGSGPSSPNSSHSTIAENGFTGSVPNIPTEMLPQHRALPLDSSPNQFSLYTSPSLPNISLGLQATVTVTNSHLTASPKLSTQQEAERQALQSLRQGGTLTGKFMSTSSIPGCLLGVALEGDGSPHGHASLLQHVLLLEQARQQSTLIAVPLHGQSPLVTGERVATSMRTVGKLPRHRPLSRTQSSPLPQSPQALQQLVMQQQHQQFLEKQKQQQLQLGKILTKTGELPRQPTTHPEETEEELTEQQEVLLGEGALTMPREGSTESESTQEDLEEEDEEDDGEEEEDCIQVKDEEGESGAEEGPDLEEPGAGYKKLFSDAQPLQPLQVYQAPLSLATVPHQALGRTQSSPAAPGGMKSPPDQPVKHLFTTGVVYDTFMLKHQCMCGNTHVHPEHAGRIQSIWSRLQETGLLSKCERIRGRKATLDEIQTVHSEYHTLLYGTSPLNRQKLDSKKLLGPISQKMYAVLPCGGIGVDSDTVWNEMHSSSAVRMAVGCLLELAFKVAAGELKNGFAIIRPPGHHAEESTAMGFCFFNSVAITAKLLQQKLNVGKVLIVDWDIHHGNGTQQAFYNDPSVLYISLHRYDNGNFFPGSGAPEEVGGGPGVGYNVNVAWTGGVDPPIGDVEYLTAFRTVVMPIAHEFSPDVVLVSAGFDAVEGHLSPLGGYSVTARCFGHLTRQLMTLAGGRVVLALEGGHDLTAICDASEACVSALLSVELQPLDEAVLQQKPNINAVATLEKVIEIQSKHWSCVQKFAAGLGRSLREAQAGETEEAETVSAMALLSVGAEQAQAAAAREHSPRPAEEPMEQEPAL

Consider `CN(CCCO[N+](=O)[O-])Cc1ccc(COC(=O)NCc2ccc(C(=O)Nc3ccccc3N)cc2)cn1.Cl.Cl.Cl`, for which the Drug metabolism entry in [1] is on record as “Metabolite_Notdetected”. Also, the results for the EC50 in series [2] and in [4] were 44 µM and 2.6 µM, respectively. Besides, the inhibition (usually how much of the control response was suppressed) in series [3] was 20 to 50%. The Activity result in the series on Rattus norvegicus is “Dose-dependent effect”.

Turning to `CN(C)CCCCC(CO[N+](=O)[O-])O[N+](=O)[O-]` (centres undefined), the EC50 (as a rule, the concentration needed to bring the measured effect to its halfway point) in series [2] is more than 100 µM; in series [4] it was 0.8 µM. The Activity result in the series on Rattus norvegicus is “Dose-dependent effect”.

As for `CN(Cc1ccc(COC(=O)NCc2ccc(C(=O)Nc3ccccc3N)cc2)cn1)Cc1no[n+]([O-])c1C#N`, the concentration for a half-maximal effect (EC50) came out at 0.96 µM in series [2] and 0.024 µM in [4]. For the same compound, the inhibition in [3] fell in the range of 20 to 50%. Moreover, the result at Histone deacetylase 2 [5] was Active. In addition, the Activity entry in the series on Rattus norvegicus is “Dose-dependent effect”.

For `CN(Cc1ccc(COC(=O)NCc2ccc(C(=O)Nc3ccccc3N)cc2)cn1)Cc1no[n+]([O-])c1C(N)=O.Cl.Cl.Cl`, the Drug metabolism result in [1] and in [6] was “Metabolite_Notdetected” in each case. Besides, the EC50 was 63 µM in series [2] and 3.4 µM in [4]. The compound also had an inhibition in series [3] of 20 to 50%. Also, the Activity entry in the series on Rattus norvegicus was “Dose-dependent effect”.

For the compound `Nc1ccccc1NC(=O)c1ccc(CNC(=O)OCc2ccc(OCCOc3no[n+]([O-])c3S(=O)(=O)c3ccccc3)nc2)cc1`, the Activity entry in the series with HaCaT was “Non-Toxic”; in the series on Rattus norvegicus, “Dose-dependent effect”; in the series on C2C12 [12], “Non-Toxic”. For the same compound, the values for the IC50 against Histone deacetylase 1, against Histone deacetylase 3 and on Histone deacetylase 2 [11] were 1.02 µM, 1.19 µM and 0.37 µM, respectively. Further, the result (with C2C12 [7]; in series [8]; in [10]; at Histone deacetylase 2 [5]) was Active. Moreover, the values for the EC50 in [2] and in [4] were 0.35 µM and 0.031 µM, respectively. Moreover, the Drug metabolism result in series [9] is “Tde”. Also, the inhibition in series [3] fell in the range of 20 to 50%.

Take `Nc1ccccc1NC(=O)c1ccc(CNC(=O)OCc2cccnc2)cc1` [ENTINOSTAT]: the Activity result in the series on HaCaT and with C2C12 [12] was “Toxic” in each case.

With `COCCOc1no[n+]([O-])c1S(=O)(=O)c1ccccc1`, the EC50 in series [2] is 0.43 µM; in series [4] it was 0.0045 µM. Further, the Activity entry with Rattus norvegicus is “Dose-dependent effect”.

For the compound `CN(CCCCC(CO[N+](=O)[O-])O[N+](=O)[O-])Cc1ccc(COC(=O)NCc2ccc(C(=O)Nc3ccccc3N)cc2)cn1.Cl.Cl.Cl` (centres undefined), the Drug metabolism entry in series [1] is “Metabolite_Detected”. For the same compound, the Activity entry is “Non-Toxic” in the series on HaCaT, “Dose-dependent effect” in the series with Rattus norvegicus and “Non-Toxic” in the series on C2C12 [12]. Besides, the IC50 (in general, the point on the concentration scale where inhibition reaches its midpoint) is 1.04 µM at Histone deacetylase 1, 1.22 µM against Histone deacetylase 3 and 0.39 µM on Histone deacetylase 2 [11]. The outcome (in the series on C2C12 [7]; in series [8]; in series [10]; with C2C12 [13]; at Histone deacetylase 2 [5]; with C2C12 [14]) was Active. Moreover, the EC50 in [2] stood at 11 µM; in series [4], 0.29 µM. Further, the inhibition in series [3] was in the range of 20 to 50%.

Regarding `Nc1ccccc1NC(=O)c1ccc(CNC(=O)OCc2ccc(OCCOc3no[n+]([O-])c3-c3ccccc3)nc2)cc1`, in [1], the Drug metabolism result is “Metabolite_Detected”. Further, the EC50 in series [2] is more than 100 µM; in series [4] it was 3.4 µM. The compound also yielded an inhibition in [3] of 20 to 50%. In addition, the Activity entry with Rattus norvegicus is “Dose-dependent effect”.
